Where two headings read alike, the source gives them in different places.
Experiments:
[1] = design: method as in PMID 31371986; details: rats; cited from earlier work
cytochrome P450 (CYP3A) = tested on: cytochrome P450 (CYP3A); design: method as in PMID 31371986; details: preclinical studies; cited from earlier work
P-gp = tested on: P-gp; design: method as in PMID 31371986; details: in vitro; cited from earlier work
BCRP = tested on: BCRP; design: method as in PMID 31371986; details: in vitro; cited from earlier work
[2] = Stability of osimertinib in rat plasma under various storage conditions (QC samples, UPLC-MS/MS); format: physicochemical; details: for Autosampler stability, RE / Autosampler stability, measured concentration Mean ± SD: processed rat plasma sample, 4°C for 24 h; for Autosampler stability, RE / Autosampler stability, measured concentration Mean ± SD / Short-term stability, RE / Short-term stability, measured concentration Mean ± SD / Freeze-thawing stability, RE / Freeze-thawing stability, measured concentration Mean ± SD / Long-term stability, RE / Long-term stability, measured concentration Mean ± SD: n = 6; for Short-term stability, RE / Short-term stability, measured concentration Mean ± SD: room temperature for 6 h; for Freeze-thawing stability, RE / Freeze-thawing stability, measured concentration Mean ± SD: −80°C for 3 cycles
Protocol: (1) Short-Term Stability. QC samples (low, medium, and high levels) were assessed by analyzing QC samples kept at room temperature for six hours.
(2) Autosampler Stability. QC samples (low, medium, and high levels) were evaluated after the processed QC samples were placed in an autosampler (4°C) for 24 hours.
(3) Freeze-Thaw Stability. QC samples (low, medium, and high levels) were investigated after storage at room temperature for 8 h, followed by three freeze-thaw cycles (thawing at room temperature during 2 h and freezing again at −80°C for at least 12 h).
(4) Long-Term Stability. QC samples (low, medium, and high levels) were determined by analyzing after storage at −80°C for 28 days.

[3] = Pharmacokinetic study of osimertinib in rats after oral administration, with or without ginsenoside Rg3 pretreatment; format: in vivo, Male Sprague-Dawley rats
Protocol: The rats were randomly divided into two groups (six rats for each group). Osimertinib was dissolved and suspended by 1% carboxymethylcellulose sodium solution. The Rg3 powder in Shenyi capsule was dissolved in saline. In the first period, ginsenoside Rg3 (5 mg/kg) was orally administered to the rats in group I for seven days, and the rats in the other group were orally treated with normal saline for seven days. In the second period, the rats were fasted overnight with free access to water before the experiment. After overnight fasting, ginsenoside Rg3 (5 mg/kg) plus osimertinib (10 mg/kg) was orally administered to the rats in group I, and the rats received oral ginsenoside Rg3 30 min prior to osimertinib at the eighth day. Rats in group II were only orally treated with osimertinib (10 mg/kg) at the eighth day. Blood samples (each 100 μL) were collected via the oculi chorioideae vein at 0.5, 1, 2, 3, 4, 5, 6, 7, 8, 10, 12, 15, and 24 h after treatment in heparinized tubes. The blood samples were immediately centrifuged at 3000 rpm for 10 min. The plasma was separated from blood samples and transferred to clean tubes and immediately stored at −80°C until further analysis. The plasma concentrations of osimertinib were determined according to the aforementioned developed UPLC-MS/MS method.
The pharmacokinetic parameters, including the maximal plasma concentration (Cmax), area under the plasma concentration-time curve (AUC), time for the maximal plasma concentration (Tmax), and mean residence time (MRT), were calculated through noncompartmental analysis by Phoenix WinNonlin (Pharsight Inc., USA, version 1.1) software.

[4] = design: method as in PMID 29381826; details: patients with advanced NSCLC, cited from earlier work
[5] = rat plasma, spiked 3 ng/mL, −80°C for 28 days
[6] = rat plasma, spiked 30 ng/mL, −80°C for 28 days
[7] = rat plasma, spiked 350 ng/mL, −80°C for 28 days
[8] = male, Sprague-Dawley, rat, in vivo, po, 10 mg/kg

## C=CC(=O)Nc1cc(Nc2nccc(-c3cn(C)c4ccccc34)n2)c(OC)cc1N(C)CCN(C)C [Osimertinib]
[1]
  MRT: 14.51 h
  Tmax: about 4.48 h
  t1/2: 14.96 h
Cytochrome P450 (CYP3A)
  Metabolizing enzyme: principally metabolized by cytochrome P450 (CYP3A)
P-gp
  Substrate of P-gp: substrate
BCRP
  Substrate of BCRP: substrate
[2]; spiked 3 ng/mL
  Autosampler stability, RE: 0.6%
  Autosampler stability, measured concentration Mean ± SD: 3.02 ± 0.01 ng/mL
[2]; spiked 30 ng/mL
  Autosampler stability, RE: −4.2%
  Autosampler stability, measured concentration Mean ± SD: 28.7 ± 0.8 ng/mL
[2]; spiked 350 ng/mL
  Autosampler stability, RE: 2.5%
  Autosampler stability, measured concentration Mean ± SD: 359 ± 26 ng/mL
[2]; rat plasma, spiked 3 ng/mL
  Short-term stability, RE: 6.8%
  Short-term stability, measured concentration Mean ± SD: 3.20 ± 0.14 ng/mL
  Freeze-thawing stability, RE: 1.0%
  Freeze-thawing stability, measured concentration Mean ± SD: 3.03 ± 0.02 ng/mL
[2]; [5]
  Long-term stability, RE: −1.5%
  Long-term stability, measured concentration Mean ± SD: 2.96 ± 0.24 ng/mL
[2]; rat plasma, spiked 30 ng/mL
  Short-term stability, RE: 0.4%
  Short-term stability, measured concentration Mean ± SD: 30.1 ± 1.0 ng/mL
  Freeze-thawing stability, RE: 0.4%
  Freeze-thawing stability, measured concentration Mean ± SD: 30.1 ± 1.0 ng/mL
[2]; [6]
  Long-term stability, RE: 9.1%
  Long-term stability, measured concentration Mean ± SD: 32.7 ± 0.8 ng/mL
[2]; rat plasma, spiked 350 ng/mL
  Short-term stability, RE: −2.7%
  Short-term stability, measured concentration Mean ± SD: 341 ± 3 ng/mL
  Freeze-thawing stability, RE: −0.3%
  Freeze-thawing stability, measured concentration Mean ± SD: 349 ± 6 ng/mL
[2]; [7]
  Long-term stability, RE: 2.4%
  Long-term stability, measured concentration Mean ± SD: 359 ± 7 ng/mL
[2]; rat plasma, three QC concentrations, room temperature 6 h, autosampler 24 h, three freeze-thaw cycles (−80°C), −80°C for 28 days, all within ±15% of nominal
  Stability under the conditions investigated: stable
[3]; [8]
  AUC0-t: 2820 ± 1200 ng·h/mL
  CL/F: 330 ± 135 mL/min/kg
  Vz/F: 130 ± 58 L/kg
  half-life: 4.46 ± 0.94 h
[3]; male, Sprague-Dawley, rat, in vivo, po, 10 mg/kg, AUC0-t
  AUC0-t: 2820 ± 1210 ng·h/mL
[3]; male, Sprague-Dawley, rat, in vivo, po, 10 mg/kg, AUC0-∞
  AUC(0-inf): 2900 ± 1210 ng·h/mL
[3]; male, Sprague-Dawley, rat, in vivo, po, 10 mg/kg, C max
  Cmax: 317 ± 138 ng/mL
[3]; male, Sprague-Dawley, rat, in vivo, po, 10 mg/kg, CL/F
  CL/F: 330 mL/min/kg
[3]; male, Sprague-Dawley, rat, in vivo, po, 10 mg/kg, MRT0-t
  MRT last: 6.88 ± 0.62 h
[3]; male, Sprague-Dawley, rat, in vivo, po, 10 mg/kg, T max
  Tmax: 3.33 ± 0.82 h
[3]; male, Sprague-Dawley, rat, in vivo, po, 10 mg/kg, Vz/F
  Vd/F: 130 ± 58.1 L/kg
[4]; coadministered with itraconazole (strong CYP3A4 inhibitor)
  Increase of exposure (AUC): 24%
[4]; coadministered with rifampicin (CYP3A4 inducer)
  Decrease of exposure (AUC): 78%

## CC(C)=CCC[C@](C)(O)[C@H]1CC[C@]2(C)[C@@H]1[C@H](O)C[C@@H]1[C@@]3(C)CC[C@H](O[C@@H]4O[C@H](CO)[C@@H](O)[C@H](O)[C@H]4O[C@@H]4O[C@H](CO)[C@@H](O)[C@H](O)[C@H]4O)C(C)(C)[C@@H]3CC[C@]12C [Rg3, Ginsenoside Rg3]
[3]; Rg3 5 mg/kg oral for seven days, coadministered with osimertinib 10 mg/kg oral, rats
  Effect on the main pharmacokinetic parameters of osimertinib: no significant effect
